Results taken from patent publication US10221163B2 (priority 2015, dated 2019).
Where two headings read alike, the source gives them in different places.

Key:
[1] = system: Escherichia coli expressing NDM-1 (CLB30005, CLB30016); format: cell-based; details: with imipenem 1 μg/ml; 95% inhibition of bacterial growth
In short: (§1)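 Clinical isolates (E. coli NDM-1, S. marcescens IMP-1, K. pneumoniae VIM-1) were diluted 1:100 from saline suspension into 1.1×CAMHB and exposed to test compound with imipenem at 1 μg/ml. Plates were incubated at 35° C for 22 hours to 24 hours, and growth was read by absorbance.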

[2] = system: Klebsiella pneumoniae expressing VIM-1 (IHMA599644); format: cell-based; details: with imipenem 1 μg/ml; 95% inhibition of bacterial growth
In short: as §1

[3] = system: Serratia marcescens expressing IMP-1 (CL5741); format: cell-based; details: with imipenem 1 μg/ml; 95% inhibition of bacterial growth
In short: as §1

NDM-1 = NDM-1 (Klebsiella pneumoniae, UniProt C7C422); assay: biochemical; format: biochemical; details: fluorescence assay, CCF2-FA substrate, 1 pM enzyme, 2 hours at 25° C.; read-out: NDM-1 IC50
Sequence of NDM-1 (C7C422 whole entry, looked up, species assumed): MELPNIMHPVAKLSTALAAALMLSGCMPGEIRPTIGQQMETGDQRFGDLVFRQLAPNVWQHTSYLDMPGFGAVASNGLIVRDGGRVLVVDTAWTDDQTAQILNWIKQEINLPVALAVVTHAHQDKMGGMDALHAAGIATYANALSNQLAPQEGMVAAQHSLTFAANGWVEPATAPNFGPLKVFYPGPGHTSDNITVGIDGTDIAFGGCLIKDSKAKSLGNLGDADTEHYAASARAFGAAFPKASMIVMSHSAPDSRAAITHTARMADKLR
In short: (§2)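 Fluorescence assay, CCF2-FA substrate (cephalosporin core linking 7-hydroxycoumarin to fluorescein); inhibitor + MBL + substrate, 2 h, 25° C. IC50 by 4-parameter fit, semi-log plot.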

IMP-1 = IMP-1 (Serratia marcescens, UniProt P52699); assay: biochemical; format: biochemical; details: fluorescence assay, CCF2-FA substrate, 2 pM enzyme, 2 hours at 25° C.; read-out: IMP-1 IC50
Sequence of IMP-1 (P52699 whole entry, looked up, species assumed): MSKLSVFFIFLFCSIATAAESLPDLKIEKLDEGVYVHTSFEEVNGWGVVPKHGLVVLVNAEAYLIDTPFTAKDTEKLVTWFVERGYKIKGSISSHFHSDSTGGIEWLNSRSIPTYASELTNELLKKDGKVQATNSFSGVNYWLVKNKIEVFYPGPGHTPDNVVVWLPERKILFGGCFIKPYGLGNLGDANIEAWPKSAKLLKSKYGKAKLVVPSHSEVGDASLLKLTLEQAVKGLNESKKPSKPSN
In short: as §2

[4] = system: Pseudomonas aeruginosa efflux− (MB9799), IMP-1; format: cell-based; details: concentration restoring susceptibility to imipenem at 2 μg/mL in the presence of a class A, C, D serine β-lactamase inhibitor closely related to relebactam
In short: (§3)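 P. aeruginosa PAO1-derived IMP-1 strains, efflux+ MB9798 and efflux− MB9799, tested by standard microbroth MIC with imipenem and/or ceftazidime fixed, usually at CLSI breakpoint, plus fixed class A/C β-lactamase inhibitor against AmpC. Inhibitor titrated; concentration restoring susceptibility recorded; MB9798/MB9799 fold difference indicates efflux.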

[5] = system: Pseudomonas aeruginosa MB9798 vs MB9799; details: ratio MITC95 PA_9798/MITC95 PA_9799
In short: as §3

VIM-1 = VIM-1 (Pseudomonas aeruginosa (strain ATCC 15692 / DSM 22644 / CIP 104116 / JCM 14847 / LMG 12228 / 1C / PRS 101 / PAO1), UniProt A0A0F7KYQ8); assay: biochemical; details: CCF2-FA substrate, 30 pM enzyme, 2 hours at 25° C.
In short: as §2

[6] = system: Pseudomonas aeruginosa efflux+ (MB9798), IMP-1; format: cell-based; details: concentration restoring susceptibility to imipenem at 2 μg/mL in the presence of a class A, C, D serine β-lactamase inhibitor closely related to relebactam
In short: as §3

[7] = fluorescence assay, read-out: VIM-1 IC50

| SMILES | Escherichia coli expressing NDM-1 (CLB30016) MITC95 [1] [µM] | Klebsiella pneumoniae expressing VIM-1 (IHMA599644) MITC95 [2] [µM] | Serratia marcescens expressing IMP-1 (CL5741) MITC95 [3] [µM] | IC50 (NDM-1) [nM] | IC50 (IMP-1) [nM] | P. aeruginosa expressing IMP-1, efflux − (MB9799) MITC95 [4] [µM] | Efflux ratio [5] | IC50 (VIM-1; [7]) [nM] | P. aeruginosa expressing IMP-1, efflux + (MB9798) MITC95 [6] [µM] | IC50 (VIM-1; VIM-1 IC50, fluorescence assay) [nM] |
| --- | --- | --- | --- | --- | --- | --- | --- | --- | --- | --- |
| Nc1nc2c(-c3ccc(S(N)(=O)=O)c(S(N)(=O)=O)c3-c3nn[nH]n3)cccc2s1 [Example 143, 4-(2-aminobenzo[d]thiazol-4-yl)-3-(2H-tetrazol-5-yl)benzene-1,2-disulfonamide] | 3.125 | 12.5 | 1.563 | 0.0849 | 0.266 | 1.563 | 0.50 | 0.22 | 0.7813 | – |
| Nc1nc2c(-c3ccc(S(=O)(=O)NCCO)c(S(N)(=O)=O)c3-c3nn[nH]n3)cccc2s1 [Example 144, 4-(2-aminobenzo[d]thiazol-4-yl)-N1-(2-hydroxyethyl)-3-(2H-tetrazol-5-yl)benzene-1,2-disulfonamide] | 12.5 | 12.5 | 3.125 | 0.0898 | 0.288 | 3.125 | 1.00 | 0.162 | 3.125 | – |
| NCCNS(=O)(=O)c1ccc(-c2cccc3sc(N)nc23)c(-c2nn[nH]n2)c1S(N)(=O)=O [Example 145, 4-(2-aminobenzo[d]thiazol-4-yl)-N1-(2-aminoethyl)-3-(2H-tetrazol-5-yl)benzene-1,2-disulfonamide] | 0.7813 | 1.563 | 0.7813 | 0.0343 | 0.221 | 0.7813 | 0.50 | 0.182 | 0.3906 | – |
| Nc1nc2c(-c3ccc(S(=O)(=O)NC4CNC4)c(S(N)(=O)=O)c3-c3nn[nH]n3)cccc2s1 [Example 146, 4-(2-aminobenzo[d]thiazol-4-yl)-N1-(azetidin-3-yl)-3-(2H-tetrazol-5-yl)benzene-1,2-disulfonamide] | 3.125 | 1.563 | 0.7813 | 0.0372 | 0.356 | 0.7813 | 0.50 | 0.224 | 0.3906 | – |
| Nc1nc2c(-c3ccc(S(=O)(=O)N4CC(N)C4)c(S(N)(=O)=O)c3-c3nn[nH]n3)cccc2s1 [Example 147, 6-((3-aminoazetidin-1-yl)sulfonyl)-3-(2-aminobenzo[d]thiazol-4-yl)-2-(2H-tetrazol-5-yl)benzenesulfonamide] | 25 | 12.5 | 6.25 | 0.55 | 0.494 | 3.125 | 1.00 | 0.559 | 3.125 | – |
| Nc1nc2c(-c3ccc(S(=O)(=O)N4CCC(N)CC4)c(S(N)(=O)=O)c3-c3nn[nH]n3)cccc2s1 [Example 148, 3-(2-aminobenzo[d]thiazol-4-yl)-6-((4-aminopiperidin-1-yl)sulfonyl)-2-(2H-tetrazol-5-yl)benzenesulfonamide] | 12.5 | 6.25 | 3.125 | 0.213 | 0.49 | 1.563 | 2.00 | 0.749 | 3.125 | – |
| Nc1nc2c(-c3ccc(S(=O)(=O)NCC4(N)CC4)c(S(N)(=O)=O)c3-c3nn[nH]n3)cccc2s1 [Example 149, 4-(2-aminobenzo[d]thiazol-4-yl)-N1-((1-aminocyclopropyl)methyl)-3-(2H-tetrazol-5-yl)benzene-1,2-disulfonamide] | 12.5 | 6.25 | 6.25 | 0.216 | 0.993 | 3.125 | 1.00 | 0.739 | 3.125 | – |
| CN(C)S(=O)(=O)c1ccc(-c2cccc3sc(N)nc23)c(-c2nn[nH]n2)c1S(N)(=O)=O [Example 151, 4-(2-aminobenzo[d]thiazol-4-yl)-N1,N1-dimethyl-3-(2H-tetrazol-5-yl)benzene-1,2-disulfonamide] | 12.5 | 50 | 6.25 | 5.94 | 2.43 | 3.125 | 16.00 | 9.22 | 50 | – |
| CNS(=O)(=O)c1ccc(-c2cccc3sc(N)nc23)c(-c2nn[nH]n2)c1S(N)(=O)=O [Example 152, 4-(2-aminobezno[d]thiazol-4-yl)-N1-methyl-3-(2H-tetrazol-5-yl)benzene-1,2-disulfonamide] | 3.125 | 6.25 | 3.125 | 0.072 | 0.264 | 1.563 | 8.00 | 0.195 | 12.5 | – |
| Nc1nc2c(-c3ccc(S(=O)(=O)NCC(=O)O)c(S(N)(=O)=O)c3-c3nn[nH]n3)cccc2s1 [Example 153, ((4-(2-aminobenzo[d]thiazol-4-yl)-2-sulfamoyl-3-(2H-tetrazol-5-yl)phenyl)sulfonyl)glycine] | 50 | 100 | 25 | 0.28 | 0.704 | 12.5 | 1.00 | – | 12.5 | 1.05 |
| Nc1nc2c(-c3ccc(S(=O)(=O)NC[C@@H](N)C(=O)O)c(S(N)(=O)=O)c3-c3nn[nH]n3)cccc2s1 [Example 154, (R)-2-amino-3-((4-(2-aminobenzo[d]thiazol-4-yl)-2-sulfamoyl-3-(2H-tetrazol-5-yl)phenyl)sulfonamido)propanoic acid] | 50 | 25 | 6.25 | 0.067 | 0.155 | 6.25 | 0.50 | 0.28 | 3.125 | – |
| Nc1ccc(-c2ccc(S(N)(=O)=O)c(S(N)(=O)=O)c2-c2nn[nH]n2)cn1 [Example 155, 4-(6-Aminopyridin-3-yl)-3-(2H-tetrazol-5-yl)benzene-1,2-disulfonamide] | 0.0625 | 2.563 | 0.6406 | 1.64 | 0.658 | 1.281 | 4.88 | 0.804 | 6.25 | – |
| CS(=O)(=O)Nc1nc2c(-c3ccc(S(=O)(=O)N4CCNCC4)c(S(N)(=O)=O)c3-c3nn[nH]n3)cccc2s1 [Example 156, 3-(2-(Methylsulfonamido)benzo[d]thiazol-4-yl)-6-(piperazin-1-ylsulfonyl)-2-(2H-tetrazol-5-yl)benzenesulfonamide] | 6.25 | 25 | 12.5 | 0.29 | 0.898 | 6.25 | 2.00 | 1.74 | 12.5 | – |
